Structures are written as SMILES. Read-outs that look alike come from different tables or passages of the source.

For 7 compounds, remaining activity results are on record in US12227500B2, “Substituted pyrrolo[2,3-b]pyridines for suppressing toxic endoplasmic reticulum stress” (THE TRUSTEES OF COLUMBIA UNIVERSITY IN THE CITY OF NEW YORK, priority 2018, dated 2025).

Experiment in all cases: Radiolabeled ATP kinase assay, panel of 60 kinases (Table S5)
Common to all, as to type: biochemical

Test [1] deals with T1, panel of 60 human kinases (Homo sapiens, UniProt Q8N4C8).
T1 construct: purchased Reaction Biology Corp
T1 sequence (Q8N4C8 whole entry): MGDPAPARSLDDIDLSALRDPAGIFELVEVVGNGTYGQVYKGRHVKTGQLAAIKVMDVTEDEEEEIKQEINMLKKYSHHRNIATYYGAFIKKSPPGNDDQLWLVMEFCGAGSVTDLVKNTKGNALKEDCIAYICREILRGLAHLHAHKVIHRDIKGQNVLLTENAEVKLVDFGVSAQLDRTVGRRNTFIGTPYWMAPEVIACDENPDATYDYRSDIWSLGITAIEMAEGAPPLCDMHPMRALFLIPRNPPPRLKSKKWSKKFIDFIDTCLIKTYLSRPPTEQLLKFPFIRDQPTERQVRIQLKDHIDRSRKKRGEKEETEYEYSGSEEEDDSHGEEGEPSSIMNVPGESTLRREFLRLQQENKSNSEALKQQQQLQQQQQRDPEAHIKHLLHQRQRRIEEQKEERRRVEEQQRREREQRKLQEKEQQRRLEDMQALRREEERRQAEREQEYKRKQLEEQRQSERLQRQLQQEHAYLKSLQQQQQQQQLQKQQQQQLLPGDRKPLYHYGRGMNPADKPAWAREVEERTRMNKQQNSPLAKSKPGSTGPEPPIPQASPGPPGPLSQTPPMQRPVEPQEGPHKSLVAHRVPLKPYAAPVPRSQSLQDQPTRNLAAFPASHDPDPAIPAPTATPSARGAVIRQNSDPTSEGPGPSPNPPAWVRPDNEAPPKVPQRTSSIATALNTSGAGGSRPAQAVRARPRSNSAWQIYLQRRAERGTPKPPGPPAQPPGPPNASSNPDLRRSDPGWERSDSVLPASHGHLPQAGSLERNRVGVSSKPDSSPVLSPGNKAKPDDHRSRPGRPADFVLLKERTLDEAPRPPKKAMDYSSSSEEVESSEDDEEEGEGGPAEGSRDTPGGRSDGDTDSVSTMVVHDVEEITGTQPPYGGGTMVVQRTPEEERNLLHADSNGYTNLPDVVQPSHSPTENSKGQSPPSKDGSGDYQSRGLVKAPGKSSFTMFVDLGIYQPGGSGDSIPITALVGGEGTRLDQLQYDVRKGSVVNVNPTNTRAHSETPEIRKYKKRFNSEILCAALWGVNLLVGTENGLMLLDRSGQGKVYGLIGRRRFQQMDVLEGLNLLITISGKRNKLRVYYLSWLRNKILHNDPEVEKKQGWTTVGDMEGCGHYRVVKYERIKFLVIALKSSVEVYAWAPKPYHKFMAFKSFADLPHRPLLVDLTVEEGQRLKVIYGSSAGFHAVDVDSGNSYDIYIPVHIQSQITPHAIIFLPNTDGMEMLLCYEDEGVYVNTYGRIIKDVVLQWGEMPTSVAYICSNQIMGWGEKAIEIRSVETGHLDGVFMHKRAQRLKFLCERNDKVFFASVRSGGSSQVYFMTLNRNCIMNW
The following applies: MINK/MINK1; 0.1 μM; 10 μM ATP; read-out: % Enzyme Activity (relative to DSMO controls). In short, it runs like this: (§1)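 Cell-free radiolabeled-ATP kinase assays across a panel of 60 kinases; each compound tested at 0.1 μM and 0.5 μM for inhibition.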

The target in test [2] is T2, panel of 60 human kinases (Homo sapiens, UniProt P00519).
T2 construct: purchased Reaction Biology Corp
T2 sequence (P00519 whole entry): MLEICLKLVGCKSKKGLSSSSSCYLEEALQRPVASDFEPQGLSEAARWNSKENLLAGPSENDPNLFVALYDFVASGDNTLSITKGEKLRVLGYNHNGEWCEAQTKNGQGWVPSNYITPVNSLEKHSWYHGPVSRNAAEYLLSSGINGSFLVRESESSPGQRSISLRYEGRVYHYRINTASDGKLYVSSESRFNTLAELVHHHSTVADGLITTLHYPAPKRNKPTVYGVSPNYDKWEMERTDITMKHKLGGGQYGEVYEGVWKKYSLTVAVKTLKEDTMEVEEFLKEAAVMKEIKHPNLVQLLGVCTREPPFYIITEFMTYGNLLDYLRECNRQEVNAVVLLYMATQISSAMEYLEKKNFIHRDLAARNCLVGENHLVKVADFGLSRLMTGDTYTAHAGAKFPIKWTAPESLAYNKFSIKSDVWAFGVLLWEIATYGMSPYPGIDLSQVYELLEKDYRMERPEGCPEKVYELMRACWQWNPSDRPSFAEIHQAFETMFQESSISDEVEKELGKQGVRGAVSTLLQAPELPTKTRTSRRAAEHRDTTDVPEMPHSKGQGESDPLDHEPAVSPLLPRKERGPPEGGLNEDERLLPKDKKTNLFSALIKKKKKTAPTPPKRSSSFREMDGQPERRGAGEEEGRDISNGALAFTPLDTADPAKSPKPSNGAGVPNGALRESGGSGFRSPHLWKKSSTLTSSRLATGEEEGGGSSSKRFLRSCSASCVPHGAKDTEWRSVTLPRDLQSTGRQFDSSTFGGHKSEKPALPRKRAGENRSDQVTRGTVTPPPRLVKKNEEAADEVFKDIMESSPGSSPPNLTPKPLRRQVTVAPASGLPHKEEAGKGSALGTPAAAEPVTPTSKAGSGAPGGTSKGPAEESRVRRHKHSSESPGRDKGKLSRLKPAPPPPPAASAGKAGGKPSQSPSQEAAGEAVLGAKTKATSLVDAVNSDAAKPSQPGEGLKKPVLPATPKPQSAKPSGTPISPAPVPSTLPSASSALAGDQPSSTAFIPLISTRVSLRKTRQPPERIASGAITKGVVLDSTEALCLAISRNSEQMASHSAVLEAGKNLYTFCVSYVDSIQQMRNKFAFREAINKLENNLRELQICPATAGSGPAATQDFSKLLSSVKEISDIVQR
As to conditions: ABL1; 0.1 μM; 10 μM ATP; read-out: % Enzyme Activity (relative to DSMO controls). An outline of the steps:
as §1

Test [3] has as its target T3, panel of 60 human kinases (Homo sapiens, UniProt O94921).
T3 construct: purchased Reaction Biology Corp
As to conditions: CDK14/cyclin Y (PFTK1); 0.1 μM; 10 μM ATP; read-out: % Enzyme Activity (relative to DSMO controls). In short, it runs like this: as §1

In test [4] the target is T4, panel of 60 human kinases (Homo sapiens, UniProt Q13627).
T4 construct: purchased Reaction Biology Corp
As to conditions: DYRK/RK1A; 0.1 μM; 10 μM ATP; read-out: % Enzyme Activity (relative to DSMO controls). In short, it runs like this: as §1

The target of test [5] is T5, panel of 60 human kinases (Homo sapiens, UniProt P22607).
T5 construct: purchased Reaction Biology Corp
T5 sequence (P22607 23-806): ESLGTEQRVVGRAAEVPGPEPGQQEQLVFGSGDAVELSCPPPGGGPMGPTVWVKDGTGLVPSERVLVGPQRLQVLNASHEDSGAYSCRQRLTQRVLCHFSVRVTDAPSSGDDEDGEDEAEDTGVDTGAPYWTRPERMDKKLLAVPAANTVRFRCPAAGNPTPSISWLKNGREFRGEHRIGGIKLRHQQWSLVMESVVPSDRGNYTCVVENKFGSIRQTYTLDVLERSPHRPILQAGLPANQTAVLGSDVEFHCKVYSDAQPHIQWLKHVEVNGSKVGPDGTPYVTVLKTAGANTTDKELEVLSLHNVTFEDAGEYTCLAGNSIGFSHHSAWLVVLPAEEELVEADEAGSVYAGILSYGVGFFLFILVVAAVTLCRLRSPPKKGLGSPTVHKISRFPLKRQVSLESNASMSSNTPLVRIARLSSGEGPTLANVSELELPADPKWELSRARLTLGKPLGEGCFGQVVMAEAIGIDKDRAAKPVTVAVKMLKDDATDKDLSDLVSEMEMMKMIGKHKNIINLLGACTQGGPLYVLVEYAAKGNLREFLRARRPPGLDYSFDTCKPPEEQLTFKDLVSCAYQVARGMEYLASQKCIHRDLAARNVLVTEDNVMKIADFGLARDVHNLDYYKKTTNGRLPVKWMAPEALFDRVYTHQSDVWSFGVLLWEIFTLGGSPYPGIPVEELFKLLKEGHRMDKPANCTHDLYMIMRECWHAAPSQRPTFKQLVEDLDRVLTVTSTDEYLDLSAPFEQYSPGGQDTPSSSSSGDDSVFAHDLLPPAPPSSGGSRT
As to conditions: FGFR3; 0.1 μM; 10 μM ATP; read-out: % Enzyme Activity (relative to DSMO controls). An outline of the steps: as §1

Test [6] addresses T6, panel of 60 human kinases (Homo sapiens, UniProt O60285).
T6 construct: purchased Reaction Biology Corp
T6 sequence (O60285 1-661): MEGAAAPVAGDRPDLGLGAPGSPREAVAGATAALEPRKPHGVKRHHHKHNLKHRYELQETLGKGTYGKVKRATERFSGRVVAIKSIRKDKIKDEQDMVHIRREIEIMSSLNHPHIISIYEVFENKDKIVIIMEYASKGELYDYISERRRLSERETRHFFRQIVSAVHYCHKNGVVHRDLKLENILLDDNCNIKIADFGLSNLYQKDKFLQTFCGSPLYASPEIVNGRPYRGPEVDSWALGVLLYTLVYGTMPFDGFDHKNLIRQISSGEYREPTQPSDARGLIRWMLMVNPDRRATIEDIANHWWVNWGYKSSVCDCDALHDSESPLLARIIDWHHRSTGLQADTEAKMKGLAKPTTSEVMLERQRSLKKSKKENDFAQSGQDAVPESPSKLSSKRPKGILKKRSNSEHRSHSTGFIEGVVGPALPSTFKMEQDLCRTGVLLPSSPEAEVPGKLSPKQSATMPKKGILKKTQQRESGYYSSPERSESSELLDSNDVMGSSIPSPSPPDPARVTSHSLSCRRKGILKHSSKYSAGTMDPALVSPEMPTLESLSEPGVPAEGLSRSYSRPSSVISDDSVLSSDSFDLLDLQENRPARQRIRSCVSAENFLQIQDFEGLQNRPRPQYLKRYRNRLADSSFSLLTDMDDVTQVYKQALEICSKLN
As to conditions: ARK5/NUAK1; 0.1 μM; 10 μM ATP; read-out: % Enzyme Activity (relative to DSMO controls). An outline of the steps: as §1

The target of test [7] is T7, panel of 60 human kinases (Homo sapiens, UniProt Q00534).
T7 construct: purchased Reaction Biology Corp
T7 sequence (Q00534 whole entry): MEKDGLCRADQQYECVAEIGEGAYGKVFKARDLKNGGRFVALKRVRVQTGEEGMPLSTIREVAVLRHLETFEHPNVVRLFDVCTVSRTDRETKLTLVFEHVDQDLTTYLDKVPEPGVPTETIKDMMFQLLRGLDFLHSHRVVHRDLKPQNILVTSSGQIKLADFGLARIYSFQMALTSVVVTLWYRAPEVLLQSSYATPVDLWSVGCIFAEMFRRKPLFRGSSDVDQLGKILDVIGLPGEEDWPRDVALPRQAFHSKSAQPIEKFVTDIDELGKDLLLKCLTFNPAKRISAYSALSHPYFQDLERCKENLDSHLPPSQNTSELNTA
As to conditions: 0.1 μM, 10 μM ATP, read-out: % Enzyme Activity (relative to DSMO controls). An outline of the steps: as §1

Test [8] has as its target T8, panel of 60 human kinases (Homo sapiens, UniProt Q13470).
T8 construct: purchased Reaction Biology Corp
T8 sequence (Q13470 1-666): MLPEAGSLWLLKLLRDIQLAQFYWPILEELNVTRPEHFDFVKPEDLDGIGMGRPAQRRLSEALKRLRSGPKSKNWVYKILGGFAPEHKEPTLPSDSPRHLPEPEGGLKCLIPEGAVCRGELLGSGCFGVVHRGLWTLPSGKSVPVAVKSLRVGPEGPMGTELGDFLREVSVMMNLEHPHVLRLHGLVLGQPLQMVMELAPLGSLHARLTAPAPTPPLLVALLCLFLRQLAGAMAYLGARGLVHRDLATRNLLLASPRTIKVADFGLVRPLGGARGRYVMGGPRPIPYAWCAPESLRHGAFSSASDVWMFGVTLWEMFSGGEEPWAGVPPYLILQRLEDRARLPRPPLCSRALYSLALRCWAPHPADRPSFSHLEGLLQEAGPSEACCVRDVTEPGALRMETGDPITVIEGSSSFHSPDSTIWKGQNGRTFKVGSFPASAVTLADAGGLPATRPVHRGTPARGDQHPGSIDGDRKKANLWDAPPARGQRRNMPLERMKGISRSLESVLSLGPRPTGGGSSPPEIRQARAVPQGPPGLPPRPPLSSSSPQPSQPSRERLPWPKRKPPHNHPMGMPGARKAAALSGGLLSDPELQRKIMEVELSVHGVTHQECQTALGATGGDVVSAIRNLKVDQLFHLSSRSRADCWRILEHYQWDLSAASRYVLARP
The following applies: TNK1; 0.1 μM; 10 μM ATP; read-out: % Enzyme Activity (relative to DSMO controls). An outline of the steps:
as §1

Test [9] concerns the target T9, panel of 60 human kinases (Homo sapiens, UniProt Q9Y4K4).
T9 construct: purchased Reaction Biology Corp
As to conditions: KHS/MAPK4K5; 0.1 μM; 10 μM ATP; read-out: % Enzyme Activity (relative to DSMO controls). In short, it runs like this:
as §1

Test [10] has as its target T10, panel of 60 human kinases (Homo sapiens, UniProt Q9UQB9).
T10 construct: purchased Reaction Biology Corp
T10 sequence (Q9UQB9 1-309): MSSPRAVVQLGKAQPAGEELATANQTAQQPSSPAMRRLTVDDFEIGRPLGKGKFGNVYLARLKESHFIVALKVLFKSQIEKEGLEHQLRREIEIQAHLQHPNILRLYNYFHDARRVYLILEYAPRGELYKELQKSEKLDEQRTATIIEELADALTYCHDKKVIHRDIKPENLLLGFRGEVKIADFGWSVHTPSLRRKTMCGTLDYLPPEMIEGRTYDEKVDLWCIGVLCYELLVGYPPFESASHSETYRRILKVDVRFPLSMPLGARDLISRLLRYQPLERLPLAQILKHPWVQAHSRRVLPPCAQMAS
As to conditions: Aurora C; 0.1 μM; 10 μM ATP; read-out: % Enzyme Activity (relative to DSMO controls). An outline of the steps:
as §1

T9 sequence (Q9Y4K4 whole entry): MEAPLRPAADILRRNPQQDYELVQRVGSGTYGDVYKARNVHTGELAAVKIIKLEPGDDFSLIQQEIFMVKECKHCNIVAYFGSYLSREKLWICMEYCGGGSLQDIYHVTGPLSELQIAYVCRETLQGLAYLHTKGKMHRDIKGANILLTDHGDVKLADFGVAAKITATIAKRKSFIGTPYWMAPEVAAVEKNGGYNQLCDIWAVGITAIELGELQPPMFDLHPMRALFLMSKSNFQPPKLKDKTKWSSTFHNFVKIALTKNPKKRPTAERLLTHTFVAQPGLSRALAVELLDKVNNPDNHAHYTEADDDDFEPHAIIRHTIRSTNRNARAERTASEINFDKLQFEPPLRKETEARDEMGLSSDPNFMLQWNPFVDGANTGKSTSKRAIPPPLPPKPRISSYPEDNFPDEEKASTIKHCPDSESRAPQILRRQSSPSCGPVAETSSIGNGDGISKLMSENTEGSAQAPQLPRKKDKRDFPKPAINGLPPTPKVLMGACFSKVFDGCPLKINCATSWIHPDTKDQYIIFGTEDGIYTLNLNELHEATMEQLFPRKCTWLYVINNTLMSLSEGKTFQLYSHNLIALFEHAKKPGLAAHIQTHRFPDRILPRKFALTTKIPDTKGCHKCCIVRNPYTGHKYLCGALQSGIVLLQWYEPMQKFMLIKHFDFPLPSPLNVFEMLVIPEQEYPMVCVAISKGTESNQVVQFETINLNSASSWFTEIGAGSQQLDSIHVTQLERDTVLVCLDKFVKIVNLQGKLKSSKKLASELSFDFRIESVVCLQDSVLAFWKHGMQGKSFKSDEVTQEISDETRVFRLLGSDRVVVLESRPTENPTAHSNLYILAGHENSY
T3 sequence (O94921 whole entry): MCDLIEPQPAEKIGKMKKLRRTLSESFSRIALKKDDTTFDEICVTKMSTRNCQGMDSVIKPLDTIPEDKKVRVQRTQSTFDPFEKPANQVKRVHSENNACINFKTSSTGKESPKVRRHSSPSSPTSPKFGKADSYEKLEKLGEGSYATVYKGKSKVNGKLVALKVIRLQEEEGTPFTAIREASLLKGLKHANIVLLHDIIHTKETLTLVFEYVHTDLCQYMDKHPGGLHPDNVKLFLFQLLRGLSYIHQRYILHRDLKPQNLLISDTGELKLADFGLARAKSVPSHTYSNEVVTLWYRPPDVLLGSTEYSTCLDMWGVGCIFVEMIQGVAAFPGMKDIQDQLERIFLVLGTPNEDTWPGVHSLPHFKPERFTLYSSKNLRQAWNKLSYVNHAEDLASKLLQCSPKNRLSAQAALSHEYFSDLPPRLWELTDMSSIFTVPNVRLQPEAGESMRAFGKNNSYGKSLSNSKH

Regarding `CN1CCN(Cc2ccc(-c3cnc4[nH]cc(-c5cccc(Cl)c5)c4c3)cc2)CC1` [Compound 7ad, 3-(3-Chlorophenyl)-5-(4-((4-methylpiperazin-1-yl)methyl)phenyl)-1H-pyrrolo[2,3-b]pyridine], the remaining activity at 0.1 µM in [1] came to 3.06%; in test [2], 77.3%; in test [3] it was 92.5%; in [4] it was 53.4%; in test [5] it was 70.1%; in [6], 22.4%. Also, the remaining activity at 0.1 µM in test [7] (CDK6/cyclin D1) is 45.8%; in [7] (CDK6/cyclin D3) it was 58.8%; in test [8], 53.5%; in test [9], 5.8%; in test [10], 104%.
For the compound `CN1CCN(Cc2ccc(-c3cnc4[nH]cc(-c5ccc6c(c5)OCCO6)c4c3)cc2)CC1` [Compound 7d, 3-(2,3-Dihydrobenzo[b][1,4]dioxin-6-yl)-5-(4-((4-methylpiperazin-1-yl)methyl)phenyl)-1H-pyrrolo[2,3-b]pyridine], the remaining activity at 0.1 µM stood at 6.69% in test [1]; 74.5% in test [2]; 66.3% in test [3]; 3.15% in test [4]; 73.4% in [5]; 20.8% in test [6]. For the same compound, the remaining activity at 0.1 µM in [7] (CDK6/cyclin D1) came out at 15.1%; in test [7] (CDK6/cyclin D3), 52.3%; in [8] it was 44.3%; in [9] it was 4.17%; in [10], 92.3%.
`Cc1nn(C)c(C)c1-c1c[nH]c2ncc(-c3ccc(CN4CCN(C)CC4)cc3)cc12` [Compound 7ai, 5-(4-((4-Methylpiperazin-1-yl)methyl)phenyl)-3-(1,3,5-trimethyl-1H-pyrazol-4-yl)-1H-pyrrolo[2,3-b]pyridine]: the remaining activity at 0.1 µM in test [1] was found to be 7.8%; in test [2] it was 26.3%; in [3], 83.9%; in [4], 41.7%; in [5], 82%; in [6], 21.6%. The remaining activity at 0.1 µM turned out to be 47.9% in test [7] (CDK6/cyclin D1); 76% in test [7] (CDK6/cyclin D3); 63.6% in [8]; 16.5% in test [9]; 122% in test [10].
In the case of `CN1CCN(Cc2ccc(-c3cnc4[nH]cc(-c5ccc6[nH]ccc6c5)c4c3)cc2)CC1` [Compound 1, 3-(1H-Indol-5-yl)-5-(4-((4-methylpiperazin-1-yl)methyl)phenyl)-1H-pyrrolo[2,3-b]pyridine, reference compound], the remaining activity at 0.1 µM in test [1] was found to be 5.53%; in test [2] it was 46.6%; in [3], 88.2%; in test [4], 41%; in [5], 43.5%; in [6], 5.96%. For the same compound, the remaining activity at 0.1 µM in test [7] (CDK6/cyclin D1) stood at 47.2%; in [7] (CDK6/cyclin D3) it was 66.1%; in test [8] it was 28.8%; in [9], 11%; in [10], 82.8%.
As to `CN1CCN(Cc2ccc(-c3cnc4[nH]cc(-c5cnn(Cc6ccccc6)c5)c4c3)cc2)CC1` [Compound 7ah, 3-(1-Benzyl-1H-pyrazol-4-yl)-5-(4-((4-methylpiperazin-1-yl)methyl)phenyl)-1H-pyrrolo[2,3-b]pyridine], the remaining activity at 0.1 µM was 5.06% in test [1]; 81% in test [2]; 30.1% in test [3]; 4.52% in test [4]; 76.6% in test [5]; 0.03% in test [6]. The remaining activity at 0.1 µM is 28.6% in test [7] (CDK6/cyclin D1); 33.2% in test [7] (CDK6/cyclin D3); 37.8% in test [8]; 6.09% in test [9]; 78.5% in test [10].
As to `CN1CCN(Cc2ccc(-c3cnc4[nH]cc(-c5ccncc5)c4c3)cc2)CC1` [Compound 7n, 5-(4-((4-Methylpiperazin-1-yl)methyl)phenyl)-3-(pyridin-4-yl)-1H-pyrrolo[2,3-b]pyridine], the remaining activity at 0.1 µM in test [1] was 38.8%; in test [2], 88.4%; in [3], 35%; in test [4], 40.3%; in [5] it was 85.9%; in test [6] it was 39.3%. The remaining activity at 0.1 µM in [7] (CDK6/cyclin D1) came out at 23.4%; in test [7] (CDK6/cyclin D3), 51.8%; in test [8], 87.8%; in [9] it was 30.9%; in test [10] it was 101%.
For the compound `CN1CCN(Cc2ccc(-c3cnc4[nH]cc(-c5ccoc5)c4c3)cc2)CC1` [Compound 7w, 3-(Furan-3-yl)-5-(4-((4-methylpiperazin-1-yl)methyl)phenyl)-1H-pyrrolo[2,3-b]pyridine], the remaining activity at 0.1 µM was 3.72% in test [1]; 64.8% in test [2]; 83.8% in [3]; 71.2% in [4]; 70.7% in test [5]; 14.8% in [6]. Besides, the remaining activity at 0.1 µM in [7] (CDK6/cyclin D1) is 58.5%; in test [7] (CDK6/cyclin D3) it was 68.4%; in [8] it was 73.2%; in test [9] it was 15.1%; in test [10] it was 94.3%.
